The nature of data set [1]: Rat plasma half-life assay. The data set is classed as in vitro ADME. Particulars: rat plasma, 37° C., LC-MS; read-out: Rat Plasma T½ (converted). As to the method: (§1) B. Human and Rat Plasma Half-Life Assay
(§2) 50 μL was removed at various times, like at 0, 1, 2, 3, 4, 8, 24, 32, 48, 56, 72 hours, mixed with 5 μL formic acid and 150 μL acetonitrile in a microcentrifuge tube, vertexed, and centrifuged for 10 minutes at 10K rpm. The supernatant was transferred to an injection vial and analyzed by LC-MS. The LC-MS system consisted of an API4000 mass spectrometer with an ESI probe. Positive ion mode and full scan detection were used. HPLC separation was carried out on a Luna 3μ C8 (2), 2×30 mm column with a gradient from 90% A to 90% B in 10 minutes at a flow rate of 0.3 ml/min. Buffer A was 1% formic acid in water and buffer B was 1% formic acid acetonitrile.

The nature of data set [2]: Human plasma half-life assay. Particulars: human plasma, 37° C., LC-MS; read-out: Human Plasma T½ (converted). The data set is classed as in vitro ADME. Here is the method: as §1, §2

Where a SMILES comes first, the peptide text is derived from it. Where no end group is shown, it is not given here. [ ]: non-standard residue; d: D form. The star is where a group is joined. Ac6c = NC1(C(=O)O)CCCCC1; Nle = CCCC[C@H](N)C(=O)O; X1 = CCCN1C(=O)CC(*)C1=O; Ac5c = NC1(C(=O)O)CCCC1; Aib = CC(C)(N)C(=O)O

Consider `CCCC[C@H](NC(=O)[C@H](C)NC(=O)[C@@H](NC(=O)C1(NC(=O)[C@H](Cc2ccc(O)cc2)NC(=O)[C@H](CC(=O)O)NC(=O)[C@H](CO)NC(=O)[C@@H](NC(=O)[C@H](Cc2ccccc2)NC(=O)[C@@H](NC(=O)CNC(=O)[C@@H]2CCCN2C(=O)C(C)(C)NC(=O)[C@@H](N)Cc2ccc(O)cc2)[C@@H](C)O)[C@@H](C)CC)CCCC1)[C@@H](C)CC)C(=O)N[C@@H](CC(=O)O)C(=O)N[C@@H](CCCCN)C(=O)N[C@H](C(=O)N[C@@H](Cc1c[nH]cn1)C(=O)N[C@@H](CCC(N)=O)C(=O)N[C@@H](CCC(N)=O)C(=O)N[C@@H](CC(=O)O)C(=O)N[C@@H](Cc1ccccc1)C(=O)N[C@H](C(=O)N[C@@H](CC(N)=O)C(=O)N[C@@H](Cc1c[nH]c2ccccc12)C(=O)N[C@@H](CC(C)C)C(=O)N[C@@H](CC(C)C)C(=O)N[C@@H](C)C(=O)N[C@@H](CCC(N)=O)C(=O)N[C@@H](CCCCN)C(N)=O)C(C)C)[C@@H](C)CC` [Example 111, (Aib^2, Pro^3, A5c^11, Nle^14)hGIP(1-30)-NH2], for which the half-life at 0.1 mg/ml in data set [1] and in data set [2] was greater than 54 h in each case.
For the compound `CC[C@H](C)[C@H](NC(=O)[C@H](CCCCN)NC(=O)[C@H](CC(=O)O)NC(=O)[C@H](CCSC)NC(=O)[C@H](C)NC(=O)[C@@H](NC(=O)C(C)(C)NC(=O)[C@H](Cc1ccc(O)cc1)NC(=O)[C@H](CC(=O)O)NC(=O)[C@H](CO)NC(=O)[C@@H](NC(=O)[C@H](Cc1ccccc1)NC(=O)[C@@H](NC(=O)CNC(=O)[C@H](CCC(=O)O)NC(=O)C(C)(C)NC(=O)[C@@H](N)Cc1ccc(O)cc1)[C@@H](C)O)[C@@H](C)CC)[C@@H](C)CC)C(=O)N[C@@H](Cc1c[nH]cn1)C(=O)N[C@@H](CCC(N)=O)C(=O)N[C@@H](CCC(N)=O)C(=O)N[C@@H](CC(=O)O)C(=O)N[C@@H](Cc1ccccc1)C(=O)N[C@H](C(=O)N[C@@H](CC(N)=O)C(=O)N[C@@H](Cc1c[nH]c2ccccc12)C(=O)N[C@@H](CC(C)C)C(=O)N[C@@H](CC(C)C)C(=O)N[C@@H](C)C(=O)N[C@@H](CCC(N)=O)C(=O)N[C@@H](CCCCN)C(N)=O)C(C)C` [Example 19, (Aib^2, 11)hGIP(1-30)-NH2] (H-Y[Aib]EGTFISDY[Aib]IAMDKIHQQDFVNWLLAQK-NH2; N-terminus assumed), the half-life at 0.1 mg/ml in data set [1] is greater than 48 h; in data set [2], 27.2 h.
For “Y[Aib]EGTF[Ac6c]SDYSIAMDKIHQQDFVNWLLAQKGKKNDWKC(X1)NITQ-OH [Example 80, [Aib^2, A6c^7, Cys(Psu)^38]hGIP(1-42)-OH]”, in that order: 5.5 h and greater than 54 h.
Turning to `CC[C@H](C)[C@H](NC(=O)[C@H](CO)NC(=O)[C@H](Cc1ccc(O)cc1)NC(=O)[C@H](CC(=O)O)NC(=O)[C@H](CO)NC(=O)C1(NC(=O)[C@H](Cc2ccccc2)NC(=O)[C@@H](NC(=O)CNC(=O)[C@H](CCC(=O)O)NC(=O)C(C)(C)NC(=O)[C@@H](N)Cc2ccc(O)cc2)[C@@H](C)O)CCCCC1)C(=O)N[C@@H](C)C(=O)NC1(C(=O)N[C@@H](CC(=O)O)C(=O)N[C@@H](CCCCN)C(=O)N[C@H](C(=O)N[C@@H](Cc2c[nH]cn2)C(=O)N[C@@H](CCC(N)=O)C(=O)N[C@@H](CCC(N)=O)C(=O)N[C@@H](CC(=O)O)C(=O)N[C@@H](Cc2ccccc2)C(=O)N[C@H](C(=O)N[C@@H](CC(N)=O)C(=O)N[C@@H](Cc2c[nH]c3ccccc23)C(=O)N[C@@H](CC(C)C)C(=O)N[C@@H](CC(C)C)C(=O)N[C@@H](C)C(=O)N[C@@H](CCC(N)=O)C(=O)N[C@@H](CCCCN)C(=O)NCC(=O)N[C@@H](CCCCN)C(=O)N[C@@H](CCCCN)C(=O)N[C@@H](CC(N)=O)C(=O)N[C@@H](CC(=O)O)C(=O)N[C@@H](Cc2c[nH]c3ccccc23)C(=O)N[C@@H](CCCCN)C(=O)N[C@@H](Cc2c[nH]cn2)C(=O)N[C@@H](CC(N)=O)C(=O)N[C@H](C(=O)N[C@H](C(=O)N[C@@H](CCC(N)=O)C(=O)O)[C@@H](C)O)[C@@H](C)CC)C(C)C)[C@@H](C)CC)CCCCC1` [Example 51, (Aib^2, A6c^7, 14)hGIP(1-42)-OH], the half-life at 0.1 mg/ml was 12.7 h in data set [1] and 33.8 h in data set [2].
For `CC[C@H](C)[C@H](NC(=O)[C@H](CO)NC(=O)[C@H](Cc1ccc(O)cc1)NC(=O)[C@H](CC(=O)O)NC(=O)[C@H](CO)NC(=O)C1(NC(=O)[C@H](Cc2ccccc2)NC(=O)[C@@H](NC(=O)CNC(=O)[C@H](CCC(=O)O)NC(=O)C(C)(C)NC(=O)[C@@H](N)Cc2ccc(O)cc2)[C@@H](C)O)CCCCC1)C(=O)N[C@@H](C)C(=O)N[C@@H](CCSC)C(=O)N[C@@H](CC(=O)O)C(=O)N[C@@H](CCCCN)C(=O)N[C@H](C(=O)N[C@@H](Cc1c[nH]cn1)C(=O)N[C@@H](CCC(N)=O)C(=O)N[C@@H](CCC(N)=O)C(=O)N[C@@H](CC(=O)O)C(=O)N[C@@H](Cc1ccccc1)C(=O)N[C@H](C(=O)N[C@@H](CC(N)=O)C(=O)N[C@@H](Cc1c[nH]c2ccccc12)C(=O)N[C@@H](CC(C)C)C(=O)N[C@@H](CC(C)C)C(=O)N[C@@H](C)C(=O)N[C@@H](CCC(N)=O)C(=O)N[C@@H](CCCCN)C(N)=O)C(C)C)[C@@H](C)CC` [Example 52, (Aib^2, A6c^7)hGIP(1-30)-NH2], in that order: 28.2 h and 14 h.
For “Y[Ac5c]EGTF[Ac5c]SDYSIA[Ac6c]DKIHQQDFVNWLLAQKGKKNDWKHNITQ-OH [Example 56, (A5c^2,7, A6c^14)hGIP(1-42)-OH]”, in that order: 9.2 h and 16 h.
For `CCCC[C@H](NC(=O)[C@H](C)NC(=O)[C@@H](NC(=O)[C@H](CO)NC(=O)[C@H](Cc1ccc(O)cc1)NC(=O)[C@H](CC(=O)O)NC(=O)[C@H](CO)NC(=O)C1(NC(=O)[C@H](Cc2ccccc2)NC(=O)[C@@H](NC(=O)CNC(=O)[C@H](CCC(=O)O)NC(=O)C(C)(C)NC(=O)[C@@H](N)Cc2ccc(O)cc2)[C@@H](C)O)CCCCC1)[C@@H](C)CC)C(=O)N[C@@H](CC(=O)O)C(=O)N[C@@H](CCCCN)C(=O)N[C@H](C(=O)N[C@@H](Cc1c[nH]cn1)C(=O)N[C@@H](CCC(N)=O)C(=O)N[C@@H](CCC(N)=O)C(=O)N[C@@H](CC(=O)O)C(=O)N[C@@H](Cc1ccccc1)C(=O)N[C@H](C(=O)N[C@@H](CC(N)=O)C(=O)N[C@@H](Cc1c[nH]c2ccccc12)C(=O)N[C@@H](CC(C)C)C(=O)N[C@@H](CC(C)C)C(=O)N[C@@H](C)C(=O)N[C@@H](CCC(N)=O)C(=O)N[C@@H](CCCCN)C(N)=O)C(C)C)[C@@H](C)CC` [Example 31, (Aib^2, A6c^7, Nle^14)hGIP(1-30)-NH2] (H-Y[Aib]EGTF[Ac6c]SDYSIA[Nle]DKIHQQDFVNWLLAQK-NH2; N-terminus assumed), in that order: 31.4 h and 36.5 h.
“Y[Aib]EGTF[Ac5c]SDYSIAMDKIHQQDFVNWLLAQKGKKNDWKHNITQ-OH [Example 6, (Aib^2, A5c^7)hGIP(1-42)-OH]”: the results for the half-life at 0.1 mg/ml in data set [1] and in data set [2] were 8.6 h and greater than 48 h, respectively.
Turning to `CC[C@H](C)[C@H](NC(=O)[C@H](CO)NC(=O)[C@H](Cc1ccc(O)cc1)NC(=O)[C@H](CC(=O)O)NC(=O)[C@H](CO)NC(=O)[C@@H](NC(=O)[C@H](Cc1ccccc1)NC(=O)[C@@H](NC(=O)CNC(=O)[C@@H]1Cc2ccccc2CN1C(=O)[C@H](C)NC(=O)[C@@H](N)Cc1ccc(O)cc1)[C@@H](C)O)[C@@H](C)CC)C(=O)N[C@@H](C)C(=O)NC1(C(=O)N[C@@H](CC(=O)O)C(=O)N[C@@H](CCCCN)C(=O)N[C@H](C(=O)N[C@@H](Cc2c[nH]cn2)C(=O)N[C@@H](CCC(N)=O)C(=O)N[C@@H](CCC(N)=O)C(=O)N[C@@H](CC(=O)O)C(=O)N[C@@H](Cc2ccccc2)C(=O)N[C@H](C(=O)N[C@@H](CC(N)=O)C(=O)N[C@@H](Cc2c[nH]c3ccccc23)C(=O)N[C@@H](CC(C)C)C(=O)N[C@@H](CC(C)C)C(=O)N[C@@H](C)C(=O)N[C@@H](CCC(N)=O)C(=O)N[C@@H](CCCCN)C(=O)NCC(=O)N[C@@H](CCCCN)C(=O)N[C@@H](CCCCN)C(=O)N[C@@H](CC(N)=O)C(=O)N[C@@H](CC(=O)O)C(=O)N[C@@H](Cc2c[nH]c3ccccc23)C(=O)N[C@@H](CCCCN)C(=O)N[C@@H](Cc2c[nH]cn2)C(=O)N[C@@H](CC(N)=O)C(=O)N[C@H](C(=O)N[C@H](C(=O)N[C@@H](CCC(N)=O)C(=O)O)[C@@H](C)O)[C@@H](C)CC)C(C)C)[C@@H](C)CC)CCCCC1` [Example 71, (Tic^3, A6c^14)hGIP(1-42)-OH], the half-life at 0.1 mg/ml in data set [1] is 4.8 h; in data set [2] it was greater than 31 h.
In the same order, the values of `CCCC[C@H](NC(=O)[C@H](C)NC(=O)[C@@H](NC(=O)[C@H](CO)NC(=O)[C@H](Cc1ccc(O)cc1)NC(=O)[C@H](CC(=O)O)NC(=O)[C@H](CO)NC(=O)C1(NC(=O)[C@H](Cc2ccccc2)NC(=O)[C@@H](NC(=O)CNC(=O)[C@H](CCC(=O)O)NC(=O)C2(NC(=O)[C@@H](N)Cc3ccc(O)cc3)CCCCC2)[C@@H](C)O)CCCCC1)[C@@H](C)CC)C(=O)N[C@@H](CC(=O)O)C(=O)N[C@@H](CCCCN)C(=O)N[C@H](C(=O)N[C@@H](Cc1c[nH]cn1)C(=O)N[C@@H](CCC(N)=O)C(=O)N[C@@H](CCC(N)=O)C(=O)N[C@@H](CC(=O)O)C(=O)N[C@@H](Cc1ccccc1)C(=O)N[C@H](C(=O)N[C@@H](CC(N)=O)C(=O)N[C@@H](Cc1c[nH]c2ccccc12)C(=O)N[C@@H](CC(C)C)C(=O)N[C@@H](CC(C)C)C(=O)N[C@@H](C)C(=O)N[C@@H](CCC(N)=O)C(=O)N[C@@H](CCCCN)C(N)=O)C(C)C)[C@@H](C)CC` [Example 36, (A6c^2,7, Nle^14)hGIP(1-30)-NH2] (H-Y[Ac6c]EGTF[Ac6c]SDYSIA[Nle]DKIHQQDFVNWLLAQK-NH2; N-terminus assumed) are 29.2 h and 23.7 h.
With “Y[Aib]EGTF[Ac6c]SDYSIAMDKIHQQDFVNWLLAQKC(X1)KKNDWKHNITQ-OH [Example 90, [Aib^2, A6c^7, Cys(Psu)^31]hGIP(1-42)-OH]”, the half-life at 0.1 mg/ml in data set [1] is 4.8 h; in data set [2] it was 11.3 h.

The values above are taken from patent US9074014B2 (Ipsen Pharma S.A.S., priority 2008, dated 2015).
